Data on ten compounds can be found in patent publication US20200397764A1, “VAP-1 INHIBITORS FOR TREATING PAIN” (BENEVOLENTAI CAMBRIDGE LIMITED, priority 2015, published 2020).

Each structure is given as a SMILES string.

Assay [1] has as its system CFA induced hypersensitivity. As to the kind of experiment: CFA induced hypersensitivity in rat, weight bearing (incapacitance tester). The assay is classed as in vivo. The following applies: for inhibition of the hypersensitivity response (weight bearing) / reversal of CFA induced hypersensitivity (weight bearing): rat. The method, then: (§1) Assessment of the anti-hyperalgesic properties of (3S)-tetrahydrofuran-3-yl (4S)-4-isopropyl-1,4,6,7-tetrahydro-5H-imidazo[4,5-c]pyridine-5-carboxylate mesylate salt was determined through measurement of weight bearing following CFA induced hypersensitivity. Naive rats distribute their body weight equally between the two hind paws. However, when the injected (left) hind paw is painful, the weight is re-distributed so that less weight is put on the affected paw (decrease in weight bearing on injured paw). Weight bearing through each hind limb was measured using a rat incapacitance tester (Linton Instruments, UK). Rats were placed in the incapacitance tester with the hind paws on separate sensors and the average force exerted by both hind limbs was recorded over 4 seconds. The injection of CFA also induces an oedema that can be assessed by paw volume; this is measured using a plethysmometer. The rat's hind paw is placed into the cylinder containing a solution and the volume of displaced liquid determines the paw volume.
Naive male, Sprague Dawley rats were acclimatised with food and water available ad libitum. Habituation to the incapacitance tester was performed. Baseline weight bearing and paw volume recordings were taken prior to induction of insult. Inflammatory hypersensitivity was induced by intraplantar injection of CFA (100μl of 1 mg/ml solution) into the left hind paw. A pre-treatment weight bearing and paw volume measurement was taken to assess hypersensitivity 23 hours post-CFA. Animals were then ranked and randomised according to CFA window in a Latin square design. […] (dosed in water at 2 mL/Kg, pH ˜5-6), alongside vehicle and reference group (indomethacin), n=9-10 per group. Weight bearing was assessed in all groups 1, 2 and 4 hours post compound administration. Paw volume was assessed 4 hours post compound administration. Data was analysed by comparing treatment groups to control group at each time point. Weight bearing (g) readings were taken for both right and left hind paws and the difference calculated. Data is expressed as % reversal of the hypersensitivity to pain, (post dose reading—pre dose reading)/(naïve reading—pre dose reading)×100, where naive weight bearing difference—pre dose weight bearing difference is defined as the CFA window to be reversed Statistical analysis was conducted by means of repeated measures ANOVA followed by Planned comparison test using InVivoStat (invivostat.co.uk), (p<0.05 considered significant).
as §1, with “of (S)-Carbidopa” for “of (3S)-tetrahydrofuran-3-yl (4S)-4-isopropyl-1,4,6,7-tetrahydro-5H-imidazo[4,5-c]pyridine-5-carboxylate mesylate salt”, “the Incapacitance” for “the incapacitance”
Naive male, Sprague Dawley rats were acclimatised with food and water available ad libitum. Habituation to the incapacitance tester was performed. Baseline weight bearing and paw volume recordings were taken prior to induction of insult. Inflammatory hypersensitivity was induced by intraplantar injection of CFA (100 μl of 1 mg/ml solution) into the left hind paw.

Assay [2] relates to CCI induced neuropathic pain. The assay can be described thus: Chronic Constriction Injury (CCI) model of neuropathic pain, mechanical allodynia (von-Frey). The assay is classed as in vivo, rat. From the text:
The Chronic Constriction Injury (CCI) model of neuropathic pain involves unilateral loose ligation of four ligatures around the left sciatic nerve at mid-thigh level spaced 1 mm apart. This procedure results in the development of hyperalgesia, allodynia and spontaneous pain (ectopic discharges) which can be measured using mechanical and thermal behavioural assessments. As such, this model is believed to mimic some of the symptoms and aetiology of neuropathic pain observed in the clInic (Bennett G J and Xie Y K., 1988; Field et al., 1999).
Naive male Sprague Dawley rats weighing 200-250 g were acclimatised to the procedure room in their home cages, with food and water available ad libitum. All animals underwent behavioural testing of mechanical allodynia prior to surgery in order to determine the baseline withdrawal thresholds. The average of the last two (out of three) baseline paw-withdrawal thresholds to stimulation with von-Frey hairs was taken as the baseline.
Under Isoflurane anaesthesia mixed with oxygen […] the left hind leg was shaved mid-thigh level and an incision made through the skin using a scalpel. The biceps femoris muscle layer was dissected by making an initial incision using a pair of sharp scissors, which was then widened using a pair of blunt scissors. The common sciatic nerve was exposed using a pair of forceps and 4 loose ligatures of chromic gut (SMI) were tied around the sciatic nerve with 1 mm spacing between each. The nerve was then returned below the muscle layer and the wound closed using absorbable sutures (Vicryl).
Behavioural testing started 19 days post-surgery with mechanical readings taken on day 19, and day 22. […]
On day 23, animals were treated orally with either Vehicle (30% aqueous hydroxypropyl-beta-cyclodextrin), 4-{5-[3-(4-Fluorophenyl)-3H-imidazo[4,5-c]pyridin-2-yl]pyridin-2-yl}morpholine 15, 50 and 150 mg/kg (5 mL/kg dose volume), or Pregabalin 30 mg/kg (2 mL/kg dose volume in water). Paw withdrawal thresholds (PWT) from each of the animals (mechanical von-Frey, mvF) were evaluated at 1 and 3 hours post dosing.
Static mechanical (tactile) allodynia: Measurement of withdrawal threshold was achieved using calibrated (force; g) von-Frey monofilaments (Touch-Test Sensory Evaluator; Scientific Marketing Associates) applied to the plantar surface of the hindpaw. Withdrawal threshold was determined by increasing and decreasing stimulus intensity, and estimated using the Dixon's up-down method (Dixon, 1980; Chaplan et al., 1994). […]
Mechanical allodynia (von Frey) data were analysed using two-way repeated measures ANOVA with ‘treatment’ as a between subjects effect and ‘day’ as a within subjects effect. […]

Assay [3] deals with CFA induced oedema. The assay can be described thus: CFA induced oedema in rat, paw volume (plethysmometer). Type of assay: in vivo. The method, then:
as §1, with “The rat's hind paw is placed into the cylinder containing a solution and the volume of displaced liquid determines the paw volume.” left out
Naive male, Sprague Dawley rats were acclimatised with food and water available ad libitum. […] Weight bearing was assessed in all groups 1, 2 and 4 hours post compound administration. […] Data was analysed by comparing treatment groups to control group at each time point. Weight bearing (g) readings were taken for both right and left hind paws and the difference calculated. […]
Data Is expressed as % reversal of the hypersensitivity to pain. Paw Volume (mL) readings were taken for the left hind paws. […]

Setting [4] is: oral 10 mg/kg, 1 and 4 hours post administration.
[5] abbreviates: oral 1, 3 and 10 mg/kg, 24 hours post CFA, 1 and 4 hours post treatment.

Turning to `CS(=O)(=O)N1CCN(c2ccc(-c3nc4ccncc4n3-c3ccc(F)cc3)cn2)CC1` [1-{5-[3-(4-Fluorophenyl)-3H-imidazo[4,5-c]pyridin-2-yl]pyridin-2-yl}-4 methanesulfonylpiperazine], the “inhibition of the hypersensitivity response (weight bearing)” value (shortened to “inhibition”) in assay [1] (oral 3 mg/kg, 1 and 4 hours post administration) was “significant reduction at 4 hours post administration”; in assay [1] (setting [4]), “significantly inhibiting the hyperactivity response at both 1 and 4 hours post administration”; in assay [1] (setting [5]), “dose-dependently inhibited the hypersensitivity response”.

Turning to `Fc1ccc(-n2c(-c3ccc(N4CCOCC4)nc3)nc3ccncc32)cc1` [4-{5-[3-(4-Fluorophenyl)-3H-imidazo[4,5-c]pyridin-2-yl]pyridin-2-yl}morpholine], the “withdrawal threshold (von-Frey mechanical allodynia)” value in assay [2] (rat CCI, 50 mg/kg p.o., vs the vehicle group) was “reaching statistical significance at 3 h”; in assay [2] (rat CCI, 150 mg/kg p.o., vs the vehicle group) it was “reaching statistical significance vs the vehicle group at 1 h and 3 h”; in assay [2] (rat CCI, 15, 50 and 150 mg/kg p.o., 1 and 3 hours post dosing, FIG. 9), “increased withdrawal threshold in a dose and temporally dependent fashion”.

As to `CC(C)[C@H]1c2nc[nH]c2CCN1C(=O)O[C@H]1CCOC1.CS(=O)(=O)O` [(3S) Tetrahydrofuran-3-yl (4S)-4-isopropyl-1,4,6,7-tetrahydro-5H-imidazo[4,5-c]pyridine-5-carboxylate mesylate salt], the “reversal of CFA induced hypersensitivity (weight bearing)” value in assay [1] (150 mg/kg p.o., 1, 2 and 4 hours post dose) was “no significant reversal of hypersensitivity at any time point”; in assay [1] (250 mg/kg p.o., 1, 2 and 4 hours post dose) it was “significant reversal at 4 hours”; in assay [1] (500 mg/kg p.o., 1, 2 and 4 hours post dose), “effective at all time points with maximum effect seen at 4 hours post dose”.

Take `CC(C)[C@H]1c2nc[nH]c2CCN1C(=O)O[C@H]1CCOC1` [(3S)-Tetrahydrofuran-3-yl (4S)-4-isopropyl-1,4,6,7-tetrahydro-5H-imidazo[4,5-c]pyridine-5-carboxylate]: the “efficacy in CFA hyperalgesia model (reversal of hypersensitivity)” value in assay [1] (rat, 150, 250 and 500 mg/kg p.o., compared with indomethacin 10 mg/kg, FIG. 1) was “effective in a dose-dependent manner, and comparably in efficacy to the gold standard benchmark indomethacin”.

For the compound `CC(C)[C@H]1c2nc[nH]c2CCN1C(=O)O[C@H]1CCOC1.CS(=O)(=O)O` [(3S)-tetrahydrofuran-3-yl (4S)-4-isopropyl-1,4,6,7-tetrahydro-5Himidazo[4,5-c]pyridine-5-carboxylate mesylate salt], the “effect on paw volume” value in assay [3] (rat, 150, 250 and 500 mg/kg p.o., 4 hours post compound administration) was “No effect”.

Regarding `C[C@@](Cc1ccc(O)c(O)c1)(NN)C(=O)O` [(S)-Carbidopa, reference compound], in assay [1] (Part B, 3-100 mg/kg alone, 1 and 3 hours post treatment, FIG. 4), the “inhibition” value is reported as “dose-dependently inhibited the hypersensitivity response”. The “effect on oedema (paw volume)” value in assay [3] (rat, Part B, 3-100 mg/kg, 3 hours post treatment, FIG. 5) is “no effect on oedema”.

Regarding `CC(=O)N1CCN(c2ccc(-c3nc4ccncc4n3-c3ccc(F)cc3)cn2)CC1` [Compound 2, 1-(4-{5-[3-(4-Fluorophenyl)-3H-imidazo[4,5-c]pyridin-2-yl]pyridin-2-yl}piperazin-1-yl)ethan-1-one], the “inhibition” value in assay [1] (setting [4]) is “significantly inhibiting the hyperactivity response at both 1 and 4 hours post administration”; in assay [1] (setting [5]) it was “dose-dependently inhibited the hypersensitivity response”.

Consider `C[C@]12C=CC(=O)C=C1CC[C@@H]1[C@@H]2[C@@H](O)C[C@@]2(C)[C@H]1CC[C@]2(O)C(=O)CO` [Prednisolone, reference compound], for which the “inhibition” value in assay [1] (Part A, 0.3-10 mg/kg alone, 1 and 3 hours post treatment, FIG. 3) is recorded as “dose-dependently inhibited the hypersensitivity response”.

Regarding `CC(C)C[C@H](CN)CC(=O)O` [Pregabalin, reference compound], in assay [2] (rat CCI, 30 mg/kg p.o., day 23 post-surgery, reference), the “withdrawal threshold (von-Frey mechanical allodynia)” value was “increased the withdrawal threshold to a degree that was comparable with those animals that had undergone sham surgery”.

On to `COc1ccc2c(c1)c(CC(=O)O)c(C)n2C(=O)c1ccc(Cl)cc1` [indomethacin, reference compound], for which, in assay [1] (10 mg/kg, 24 hours post CFA, reference), the “reversal of CFA induced hypersensitivity (weight bearing)” value was “marked reversal of the hypersensitivity”.
